According to publication PMC12169847, “Targeted protein degradation by KLHDC2 ligands identified by high-throughput screening” (eLife, 2025):
Where “and” joins values, the source holds several entries; their conditions need not be identical. Equal values may be shown once. Read-outs that look alike come from different tables or passages of the source.

Columns and labels:
[1] = molecular target: T1, KEAP1 Kelch domain (Homo sapiens, UniProt Q14145); assay: Fluorescence polarization counter-screen, KEAP1 with TAMRA-NRF2 peptide; assay type: binding; details: for inhibitory effect in the KEAP1 counter-screening assay: concentrations less than 20 µM; for Fluorescence polarization signal: KEAP1, replicate wells
T1 construct: HIS6 (N); made in house; host or cells: Escherichia coli BL21(DE3)

[2] = molecular target: T2, BRD4 (Homo sapiens, UniProt O60885); assay: Cell-based HiBiT BRD4 degradation assay in HEK293T; parameters: expressed in transfected cells; host or cells: HEK293T; details: for Relative BRD4 levels (HiBiT luminescence): replicate wells; for DC50: BRD4-HiBiT, HEK293T;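 on all read-outs here: HEK293T cells transiently expressing HiBiT-tagged BRD4, exposed to serially diluted compounds, then lysed for a luminescence read-out that tracks the amount of cellular BRD4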
[3] = molecular target: T2, BRD4; assay: Cell-based endogenous BRD4 degradation assay (western blot) in SK-BR-3; parameters: expressed in transfected cells
Method: SK-BR-3 cells (0.25×10^6 cells/well, 2 mL) were seeded in six-well polystyrene plates for 24 hr before the compounds were added at the indicated doses as DMSO solutions. The protease inhibitor MG132 (Selleck Chemicals) was added to the sixth well along with 10 μM 3d at a concentration of 10 μM. The plate was incubated at 37°C for 24 hr, and the cells from each well were collected and lysed in RIPA buffer (Thermo Fisher 89900) with Halt protease and phosphatase inhibitor cocktail (Thermo Fisher 78440). The cellular content was extracted on ice for 20 min, and the protein concentration was determined by BCA assay (Thermo Fisher 23327). 2 μg of each sample was resolved via SDS-PAGE gels, and western blotting was used to visualize the endogenous BRD4 level (BRD4 primary antibody Abcam plc, Ab128874, RRID:AB_11145462, 1:10,000 dilution) with Bio-Rad Gel Doc XR+ imaging system.

T1 sequence (Q14145 321-609 limits assumed): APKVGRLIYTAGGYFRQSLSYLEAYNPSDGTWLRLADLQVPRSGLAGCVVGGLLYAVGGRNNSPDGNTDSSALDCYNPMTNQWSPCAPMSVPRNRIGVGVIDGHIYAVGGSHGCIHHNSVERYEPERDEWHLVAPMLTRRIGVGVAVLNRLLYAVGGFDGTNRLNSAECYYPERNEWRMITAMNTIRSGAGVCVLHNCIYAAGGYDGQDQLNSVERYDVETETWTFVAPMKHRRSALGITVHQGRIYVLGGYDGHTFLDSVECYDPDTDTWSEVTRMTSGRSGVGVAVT

| inhibitory effect in the KEAP1 counter-screening assay [1] | Relative BRD4 levels (HiBiT luminescence) ([2]; 4 hr, 0.338702 nM) | Relative BRD4 levels (HiBiT luminescence) ([2]; 4 hr, 1.01611 nM) | Relative BRD4 levels (HiBiT luminescence) ([2]; 4 hr, 3.04832 nM) | Relative BRD4 levels (HiBiT luminescence) ([2]; 4 hr, 9.14495 nM) | Relative BRD4 levels (HiBiT luminescence) ([2]; 4 hr, 27.4348 nM) | Relative BRD4 levels (HiBiT luminescence) ([2]; 4 hr, 82.3045 nM) | Relative BRD4 levels (HiBiT luminescence) ([2]; 4 hr, 246.914 nM) | Relative BRD4 levels (HiBiT luminescence) ([2]; 4 hr, 740.741 nM) | Relative BRD4 levels (HiBiT luminescence) ([2]; 4 hr, 2222.22 nM) | Relative BRD4 levels (HiBiT luminescence) ([2]; 4 hr, 6666.67 nM) | Relative BRD4 levels (HiBiT luminescence) ([2]; 4 hr, 20000 nM) | Relative BRD4 levels (HiBiT luminescence) ([2]; 24 hr, 0.338702 nM) | Relative BRD4 levels (HiBiT luminescence) ([2]; 24 hr, 1.01611 nM) | Relative BRD4 levels (HiBiT luminescence) ([2]; 24 hr, 3.04832 nM) | Relative BRD4 levels (HiBiT luminescence) ([2]; 24 hr, 9.14495 nM) | Relative BRD4 levels (HiBiT luminescence) ([2]; 24 hr, 27.4348 nM) | Relative BRD4 levels (HiBiT luminescence) ([2]; 24 hr, 82.3045 nM) | DC50 ([2]; 4 hr, read-out: DC50 (4 hr)) | DC50 ([2]; 24 hr, read-out: DC50 (24 hr)) | further results | Structure (SMILES) |
| --- | --- | --- | --- | --- | --- | --- | --- | --- | --- | --- | --- | --- | --- | --- | --- | --- | --- | --- | --- | --- | --- |
| did not have an inhibitory effect | – | – | – | – | – | – | – | – | – | – | – | – | – | – | – | – | – | – | – | – | Cc1cc(NS(=O)(=O)c2ccc(Nc3nc(-c4c(C)nc5ccccn45)cs3)cc2)no1 [compound 3] |
| did not have an inhibitory effect | – | – | – | – | – | – | – | – | – | – | – | – | – | – | – | – | – | – | – | – | Cc1ccn2c(-c3csc(Nc4ccc(S(=O)(=O)Nc5cc(C)on5)cc4)n3)c(C)nc2c1 [compound 4] |
| no inhibitory effect | – | – | – | – | – | – | – | – | – | – | – | – | – | – | – | – | – | – | – | Fluorescence polarization signal ([1]; 0.169351 nM): 16 and 15 and 25; Fluorescence polarization signal ([1]; 0.508053 nM): 18 and 23 and 21; Fluorescence polarization signal ([1]; 1.52416 nM): 13 and 22 and 29; Fluorescence polarization signal ([1]; 4.57247 nM): 22 and 15 and 21; Fluorescence polarization signal ([1]; 13.7174 nM): 20 and 23 and 18; Fluorescence polarization signal ([1]; 41.1523 nM): 29 and 24 and 17; Fluorescence polarization signal ([1]; 123.457 nM): 18 and 24 and 30; Fluorescence polarization signal ([1]; 370.37 nM): 25 and 12 and 20; Fluorescence polarization signal ([1]; 1111.11 nM): 21 and 16 and 26; Fluorescence polarization signal ([1]; 3333.33 nM): 15 and 23 and 32; Fluorescence polarization signal ([1]; 10000 nM): 23 and 26 and 17; EC50 ([1]; in figure): > 20000 nM | O=C(O)c1cc(Cl)cc2c1NC(c1cccc(OC(F)(F)F)c1)C1C3CCC(C3)C21 (stereo not shown) [compound 6] |
| – | 1.014 and 0.8842 and 1.103 | 0.9863 and 1.241 and 1.012 | 0.8761 and 0.9572 and 0.9491 | 0.9491 and 0.7788 and 0.8761 | 0.9248 and 1.014 and 0.9978 | 0.9816 and 0.9329 and 0.9248 | 0.9653 and 0.868 and 0.941 | 0.7544 and 0.7706 and 0.8518 | 0.7382 and 0.5841 and 0.7139 | 0.3732 and 0.3975 and 0.4462 | 0.3569 and 0.3164 and 0.3326 | 1.478 and 0.7263 and 0.7659 | 0.6909 and 0.8141 and 0.7927 | 0.6888 and 0.7059 and 0.7509 | 0.6963 and 0.9298 and 0.7745 | 0.7895 and 0.7691 and 1.0519 | 0.858 and 0.8752 and 0.9459 | 2600 nM and 2630 nM | 4000 nM | Relative BRD4 levels (HiBiT luminescence) ([2]; 24 hr, 246.914 nM): 0.8891 and 0.8666 and 0.9223; Relative BRD4 levels (HiBiT luminescence) ([2]; 24 hr, 740.741 nM): 1.234 and 1.1783 and 1.43; Relative BRD4 levels (HiBiT luminescence) ([2]; 24 hr, 2222.22 nM): 0.8473 and 0.8591 and 0.9544; Relative BRD4 levels (HiBiT luminescence) ([2]; 24 hr, 6666.67 nM): 0.1778 and 0.1692 and 0.1789; Relative BRD4 levels (HiBiT luminescence) ([2]; 24 hr, 20000 nM): 0.1875 and 0.1318 and 0.1307 | COC(=O)c1cc(Cl)cc2c1NC(c1cccc(OCCOCCOCCNC(=O)CC3N=C(c4ccc(Cl)cc4)c4c(sc(C)c4C)-n4c(C)nnc43)c1)C1C3CCC(C3)C21 [compound 7, Methyl 2-chloro-6-(3-(2-(2-(2-(2-((S)-4-(4-chlorophenyl)–2,3,9-trimethyl-6H-thieno[3,2 f][1,2,4]triazolo[4,3 a][1,4]diazepin-6-yl)acetamido)ethoxy)ethoxy)ethoxy)phenyl)-5,6,6a,7,8,9,10,10a-octahydro-7,10-methanophenanthridine-4-carboxylate] |
| – | 0.9416 and 0.7691 and 0.8677 | 1.421 and 0.6823 and 1.057 | 0.9694 and 0.7305 and 0.8098 | 0.8569 and 0.4906 and 0.8452 | 0.6224 and 0.978 and 0.6213 | 0.6909 and 0.6031 and 0.4253 | 0.2967 and 0.3567 and 0.4735 | 0.2624 and 0.2035 and 0.2314 | 0.1885 and 0.1435 and 0.2046 | 0.1767 and 0.1639 and 0.1864 | 0.2282 and 0.2025 and 0.226 | 0.9416 and 0.7691 and 0.8677 | 1.421 and 0.6823 and 1.057 | 0.9694 and 0.7305 and 0.8098 | 0.8569 and 0.4906 and 0.8452 | 0.6224 and 0.978 and 0.6213 | 0.6909 and 0.6031 and 0.4253 | 164 nM | 80 nM | endogenous BRD4 protein degraded ([3]; SK-BR-3, 100 nM, 24 hr): more than 60%; endogenous BRD4 degradation (maximal) ([3]; SK-BR-3, 10 µM, 24 hr): 94%; BRD4 remaining ([3]; SK-BR-3, 10 µM, DMSO condition, 24 hr): 4%; BRD4 remaining ([3]; SK-BR-3, 10 µM, co-treated with MG-132, 24 hr): 29%; Relative BRD4 levels (HiBiT luminescence) ([2]; 24 hr, 246.914 nM): 0.2967 and 0.3567 and 0.4735; Relative BRD4 levels (HiBiT luminescence) ([2]; 24 hr, 740.741 nM): 0.2624 and 0.2035 and 0.2314; Relative BRD4 levels (HiBiT luminescence) ([2]; 24 hr, 2222.22 nM): 0.1885 and 0.1435 and 0.2046; Relative BRD4 levels (HiBiT luminescence) ([2]; 24 hr, 6666.67 nM): 0.1767 and 0.1639 and 0.1864; Relative BRD4 levels (HiBiT luminescence) ([2]; 24 hr, 20000 nM): 0.2282 and 0.2025 and 0.226 | COC(=O)c1cc(Cl)cc2c1NC(c1cccc(OCCC3CCN(CC4CCN(C(=O)CC5N=C(c6ccc(Cl)cc6)c6c(sc(C)c6C)-n6c(C)nnc65)CC4)CC3)c1)C1C3CCC(C3)C21 [compound 8, Methyl 2-chloro-6-(3-(2-(1-((1-(2-((S)–4-(4-chlorophenyl)-2,3,9-trimethyl-6H-thieno[3,2 f][1,2,4]triazolo[4,3 a][1,4]diazepin-6-yl)acetyl)piperidin-4-yl)methyl)piperidin-4-yl)ethoxy)phenyl)-5,6,6a,7,8,9,10,10a-octahydro-7,10-methanophenanthridine-4-carboxylate] |
| – | – | – | – | – | – | – | – | – | – | – | – | – | – | – | – | – | – | > 20000 nM | > 20000 nM | BRD4 degradation ([2]; any concentration (<20 µM), 4 or 24 hr): did not promote BRD4 degradation | COC(=O)c1cc(Cl)cc2c1NC(c1cccc(OCc3ccc(-c4ccc(NC(=O)C[C@@H]5N=C(c6ccc(Cl)cc6)c6c(sc(C)c6C)-n6c(C)nnc65)cc4)cc3)c1)C1C3CCC(C3)C21 (stereo partly drawn) [compound 9, Methyl 2-chloro-6-(3-((4'-(2-((S)-4-(4-chlorophenyl)-2,3,9-trimethyl-6H-thieno[3,2 f][1,2,4]triazolo[4,3 a][1,4]diazepin-6-yl)acetamido)-[1,1'-biphenyl]-4-yl)methoxy)phenyl)--5,6,6a,7,8,9,10,10a-octahydro-7,10-methanophenanthridine-4-carboxylate] |
